Measured values reported in paper PMC10768847 (Journal of medicinal chemistry, 2023).
Read-outs that look alike come from different tables or passages of the source. Where a SMILES comes first, the peptide text is derived from it. [ ]: non-standard residue; d: D form. The star is where a group is joined. Orn(α-tetramethylguanidino) = CN(C)C(=N[C@@H](CCCN)C(=O)*)N(C)C; Arg(Me) = CNC(=N)NCCC[C@H](N)C(=O)O; dLeu(ol) = CC(C)C[C@@H](N)CO; NHIsopentyl = CC(C)CCN*

Legend:
E. coli BL21 = type: cell-based, Escherichia coli; conditions: for Fold change: MIC compared to that of Api-137; for MIC: microbroth dilution, 96-well plates, E. coli BL21 OD600 = 0.002 in 0.3 Tryptic Soy Broth, overnight at 37 °C, visible cell density, run in duplicate
E. coli BL21 RF2(R262C) = assay: Minimum inhibitory concentration against release factor mutant strain; type: cell-based, Escherichia coli; conditions: Table 5; release factor mutant resistant to Api-137

Question: How did the Fold change (E. coli BL21; Table 3) turn out when gu-ONNRPVYIPRPRPPHPRL-OH [Compound 23] was run?
Answer: 2

Question: What about the MIC (E. coli BL21; Table 3) of the same compound?
Answer: 0.16 to 0.3 µM

Question: How did the Fold change (E. coli BL21; Table 1) turn out when `CC[C@H](C)[C@H](NC(=O)[C@H](Cc1ccc(O)cc1)NC(=O)[C@@H](NC(=O)[C@@H]1CCCN1C(=O)[C@H](CCCNC(=N)N)NC(=O)[C@H](CC(N)=O)NC(=O)[C@H](CC(N)=O)NC(=O)[C@H](CCCN)N=C(N(C)C)N(C)C)C(C)C)C(=O)N1CCC[C@H]1C(=O)N[C@@H](CCCNC(=N)N)C(=O)N1CCC[C@H]1C(=O)N[C@@H](CCCNC(=N)N)C(=O)N1CCC[C@H]1C(=O)N1CCC[C@H]1C(=O)N[C@@H](Cc1c[nH]cn1)C(=O)N1CCC[C@H]1C(=O)N[C@@H](CCCNC(=N)N)C(=O)N[C@@H](CO)CC(C)C` [Compound 6] ({Orn(α-tetramethylguanidino)}-NNRPVYIPRPRPPHPR[dLeu(ol)]) was run?
Answer: 62–128

Question: Which results are given for gu-ONNRPVYIPRPRPPHPRL-OH [Compound 26]?
Answer: Fold change (E. coli BL21; Table 3): 1; MIC (E. coli BL21; Table 3): 0.08 to 0.16 µM

Question: For `CC[C@H](C)[C@H](NC(=O)[C@H](Cc1ccc(O)cc1)NC(=O)[C@@H](NC(=O)[C@@H]1CCCN1C(=O)[C@H](CCCNC(=N)N)NC(=O)[C@H](CC(N)=O)NC(=O)[C@H](CC(N)=O)NC(=O)[C@H](CCCN)N=C(N(C)C)N(C)C)C(C)C)C(=O)N1CCC[C@H]1C(=O)N[C@@H](CCCNC(=N)N)C(=O)N1CCC[C@H]1C(=O)N[C@@H](CCCNC(=N)N)C(=O)N1CCC[C@H]1C(=O)N1CCC[C@H]1C(=O)N[C@@H](Cc1c[nH]c2ccccc12)C(=O)N1CCC[C@H]1C(=O)N[C@@H](CCCNC(=N)N)C(=O)N[C@@H](CC(C)C)C(=O)O` [Compound 14] ({Orn(α-tetramethylguanidino)}-NNRPVYIPRPRPPWPRL-OH), which Fold change (E. coli BL21; Table 2) is on record?
Answer: 8–16

Question: And the MIC (E. coli BL21; Table 2)?
Answer: 1.2 to 2.5 µM

Question: Which Fold change (E. coli BL21; Table 3) does the source give for gu-ONNRPVYIPRPRPPHPRL-OH [Compound 22] here?
Answer: 2–4

Question: How did the MIC (E. coli BL21; Table 3) turn out when gu-ONNRPVYIPRPRPPHPRL-OH [Compound 25] was run?
Answer: 0.08 to 0.16 µM

Question: How did the Fold change (E. coli BL21; Table 3) turn out when gu-ONNRPVYIPRPRPPHPRL-OH [Compound 21] was run?
Answer: 2–4

Question: How did the MIC (E. coli BL21; Table 1) turn out when `CC[C@H](C)[C@H](NC(=O)[C@H](Cc1ccc(O)cc1)NC(=O)[C@@H](NC(=O)[C@@H]1CCCN1C(=O)[C@H](CCCNC(=N)N)NC(=O)[C@H](CC(N)=O)NC(=O)[C@H](CC(N)=O)NC(=O)[C@H](CCCN)N=C(N(C)C)N(C)C)C(C)C)C(=O)N1CCC[C@H]1C(=O)N[C@@H](CCCNC(=N)N)C(=O)N1CCC[C@H]1C(=O)N[C@@H](CCCNC(=N)N)C(=O)N1CCC[C@H]1C(=O)N1CCC[C@H]1C(=O)N[C@@H](Cc1c[nH]cn1)C(=O)N1CCC[C@H]1C(=O)N[C@@H](CCCNC(=N)N)C(=O)NCCC(C)C` [Compound 4] ({Orn(α-tetramethylguanidino)}-NNRPVYIPRPRPPHPR-NHIsopentyl) was run?
Answer: > 40 µM

Question: How did the “minimum inhibitory concentration, BL21 RF2(R262C)” value (E. coli BL21 RF2(R262C)) turn out when `CC[C@H](C)[C@H](NC(=O)[C@H](Cc1ccc(O)cc1)NC(=O)[C@@H](NC(=O)[C@@H]1CCCN1C(=O)[C@H](CCCNC(=N)N)NC(=O)[C@H](CC(N)=O)NC(=O)[C@H](CC(N)=O)NC(=O)[C@H](CCCN)N=C(N(C)C)N(C)C)C(C)C)C(=O)N1CCC[C@H]1C(=O)N[C@@H](CCCNC(=N)N)C(=O)N1CCC[C@H]1C(=O)N[C@@H](CCCNC(=N)N)C(=O)N1CCC[C@H]1C(=O)N1CCC[C@H]1C(=O)N[C@@H](Cc1c[nH]cn1)C(=O)N1CCC[C@H]1C(=O)N[C@@H](CCCNC(=N)NC)C(=O)N[C@@H](CC(C)C)C(=O)O` [Compound 3] ({Orn(α-tetramethylguanidino)}-NNRPVYIPRPRPPHP[Arg(Me)]L-OH) was run?
Answer: >25

Question: gu-ONNRPVYIPRPRPPHPRL-OH [Compound 15] was tested. Which Fold change (E. coli BL21; Table 3) did it give?
Answer: 4

Question: What about the MIC (E. coli BL21; Table 3) of the same compound?
Answer: 0.62 µM

Question: Which Fold change (E. coli BL21; Table 3) does the source give for gu-ONNRPVYIPRPRPPHPRL-OH [Compound 18] here?
Answer: 4

Question: And the MIC (E. coli BL21; Table 3)?
Answer: 0.62 µM
